In US9695155B2, “Herbicidal substituted pyrimidinyloxy benzene compounds” (E. I. DU PONT DE NEMOURS AND COMPANY, priority 2013, dated 2017):

Experiments:
morningglory [1] = experiment: Test A postemergence; assay type: in vivo, Ipomoea spp.; conditions: Ipomoea, post-emergence, 240 h, 0 to 100 scale where 0 is no effect and 100 is complete control, read-out: Plant response rating, Morningglory
How it was run: (§1)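 Visual 0–100 rating (100 = complete control) taken about 10 d post-treatment relative to untreated checks. Preemergence: directed soil spray on sown loam/sand pots. Postemergence: seedlings 2–10 cm, 1–2 leaf. Non-phytotoxic solvent formulation with surfactant.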

barnyardgrass = experiment: Test A postemergence; assay type: in vivo, Echinochloa crus-galli; conditions: Echinochloa crus-galli, post-emergence, 240 h
How it was run: as §1

giant foxtail [2] = experiment: Test A postemergence; assay type: in vivo, Setaria faberii; conditions: Setaria faberi, post-emergence, 240 h, 0 to 100 scale where 0 is no effect and 100 is complete control, read-out: Plant response rating, Foxtail, Giant
How it was run: as §1

pigweed = experiment: Test C postemergence; assay type: in vivo, Amaranthus retroflexus; conditions: Amaranthus retroflexus, post-emergence
How it was run: (§2)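 Seeds are planted in blended loam soil and sand and treated preemergence, while seedlings in a peat moss/vermiculite medium receive postemergence sprays at 2 to 18 cm height. All plants stay in the greenhouse for 13 to 15 days before visual comparison with controls on a 0–100 scale.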

velvetleaf [3] = experiment: Test A preemergence; assay type: in vivo, Abutilon theophrasti
How it was run: as §1

corn [4] = experiment: Test A preemergence; assay type: in vivo, Zea mays; conditions: Zea mays, pre-emergence, 240 h
How it was run: as §1

johnsongrass = experiment: Test C postemergence; assay type: in vivo, Sorghum halepense
How it was run: as §2

waterhemp = experiment: Test C postemergence; assay type: in vivo, Amaranthus rudis; conditions: Amaranthus tuberculatus, post-emergence
How it was run: as §2

oilseed rape = experiment: Test C postemergence; assay type: in vivo, Brassica napus; conditions: Brassica napus, post-emergence
How it was run: as §2

corn [5] = experiment: Test C postemergence; assay type: in vivo, Zea mays; conditions: Zea mays, post-emergence
How it was run: as §2

large (Lg) crabgrass = experiment: Test A preemergence; assay type: in vivo, Digitaria sanguinalis; conditions: Digitaria sanguinalis, pre-emergence, 240 h
How it was run: as §1

giant foxtail [6] = experiment: Test C postemergence; assay type: in vivo, Setaria faberii; conditions: Setaria faberi, post-emergence
How it was run: as §2

Heteranthera limosa = experiment: Test B flooded paddy test; assay type: in vivo; conditions: Heteranthera limosa, Flood, 250 g ai/ha; 0 to 100 scale where 0 is no effect and 100 is complete control; read-out: Plant response rating, Ducksalad
How it was run: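 Seedlings are raised to two leaves, flooded to a depth of 3 cm and dosed by adding the compound to the floodwater. Water level is kept constant, and plants are scored visually versus controls 13–15 days later (0 = no effect, 100 = complete control).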

corn [7] = experiment: Test A postemergence; assay type: in vivo, Zea mays; conditions: Zea mays, post-emergence, 240 h
How it was run: as §1

morningglory [8] = experiment: Test C postemergence; assay type: in vivo, Ipomoea coccinea; conditions: Ipomoea, post-emergence
How it was run: as §2

velvetleaf [9] = experiment: Test C postemergence; assay type: in vivo, Abutilon theophrasti; conditions: Abutilon theophrasti, post-emergence
How it was run: as §2

[10] = 125 g ai/ha, 0 to 100 scale where 0 is no effect and 100 is complete control

Structure (SMILES): FC(F)c1cnn(-c2ccccc2Oc2ncc(Cl)cn2)c1 [Compound 80, 5-chloro-2-[2-[4-(difluoromethyl)-1H-pyrazol-1-yl]phenoxy]pyrimidine]
- pest or weed control at 125 g/ha (morningglory [1]; 125 g ai/ha): 90%
- pest or weed control at 500 g/ha (morningglory [1]; 500 g ai/ha): 100%
- pest or weed control at 125 g/ha (barnyardgrass; 125 g ai/ha, 0 to 100 scale where 0 is no effect and 100 is complete control, read-out: Plant response rating, Barnyardgrass): 70%
- pest or weed control at 500 g/ha (barnyardgrass; 500 g ai/ha, 0 to 100 scale, 0 no effect, 100 complete control, read-out: Plant response rating Barnyardgrass): 100%
- pest or weed control at 125 g/ha (giant foxtail [2]; 125 g ai/ha): 80%
- pest or weed control at 500 g/ha (giant foxtail [2]; 500 g ai/ha): 90%
- pest or weed control at 125 g/ha (pigweed; 125 g ai/ha, postemergence, read-out: Plant response rating (0 to 100), Pigweed): 75%
- pest or weed control at 31 g/ha (pigweed; Postemergence, 31 g ai/ha, scale 0 to 100 (0 no effect, 100 complete control), 13 to 15 days, read-out: Plant response rating, Pigweed): 60%
- pest or weed control at 62 g/ha (pigweed; Postemergence, 62 g ai/ha, scale 0 to 100 (0 no effect, 100 complete control), read-out: Plant response rating, Pigweed): 65%
- Plant response rating, Velvetleaf (velvetleaf [3]; [10]): 80
- pest or weed control at 500 g/ha (velvetleaf [3]; Abutilon theophrasti, pre-emergence, 240 h, 500 g ai/ha, 0 to 100 scale, 0 no effect, 100 complete control, approx. 10 days, read-out: Velvetleaf plant response rating): 90%
- Corn plant response rating (crop injury, 0 = no effect, 100 = complete kill) at 125 g/ha (corn [4]; [10]): 0%
- plant injury at 500 g/ha (corn [4]; 500 g ai/ha, 0 to 100 scale, 0 no effect, 100 complete control, approx. 10 days, read-out: Corn plant response rating): 40%
- Johnsongrass plant response rating (johnsongrass; 16 g ai/ha, postemergence, visual rating, scale 0 to 100 (0 no effect, 100 complete control), 13 to 15 days): 0
- pest or weed control at 125 g/ha (johnsongrass; Sorghum halepense, post-emergence, 125 g ai/ha, postemergence, read-out: Plant response rating (0 to 100), Johnsongrass): 5%
- pest or weed control at 31 g/ha (johnsongrass; Sorghum halepense, post-emergence, Postemergence, 31 g ai/ha, scale 0 to 100 (0 no effect, 100 complete control), 13 to 15 days, read-out: Plant response rating, Johnsongrass): 0%
- pest or weed control at 62 g/ha (johnsongrass; Sorghum halepense, post-emergence, Postemergence, 62 g ai/ha, scale 0 to 100 (0 no effect, 100 complete control), read-out: Plant response rating, Johnsongrass): 5%
- pest or weed control at 125 g/ha (waterhemp; 125 g ai/ha, postemergence, read-out: Plant response rating (0 to 100), Waterhemp): 90%
- pest or weed control at 31 g/ha (waterhemp; Postemergence, 31 g ai/ha, scale 0 to 100 (0 no effect, 100 complete control), 13 to 15 days, read-out: Plant response rating, Waterhemp): 65%
- pest or weed control at 62 g/ha (waterhemp; Postemergence, 62 g ai/ha, scale 0 to 100 (0 no effect, 100 complete control), read-out: Plant response rating, Waterhemp): 70%
- plant injury at 125 g/ha (oilseed rape; 125 g ai/ha, postemergence, read-out: Plant response rating (0 to 100), Oilseed Rape): 90%
- plant injury at 31 g/ha (oilseed rape; Postemergence, 31 g ai/ha, scale 0 to 100 (0 no effect, 100 complete control), 13 to 15 days, read-out: Plant response rating, Oilseed Rape): 70%
- plant injury at 62 g/ha (oilseed rape; Postemergence, 62 g ai/ha, scale 0 to 100 (0 no effect, 100 complete control), read-out: Plant response rating, Oilseed Rape): 80%
- plant injury at 16 g/ha (corn [5]; 16 g ai/ha, postemergence, visual rating, scale 0 to 100 (0 no effect, 100 complete control), 13 to 15 days, read-out: Corn plant response rating): 0%
- plant injury at 125 g/ha (corn [5]; 125 g ai/ha, postemergence, read-out: Plant response rating (0 to 100), Corn): 5%
- Corn plant response rating (crop injury, 0 = no effect, 100 = complete kill) at 31 g/ha (corn [5]; Postemergence, 31 g ai/ha, scale 0 to 100 (0 no effect, 100 complete control), 13 to 15 days): 0%
- Corn plant response rating (crop injury, 0 = no effect, 100 = complete kill) at 62 g/ha (corn [5]; Postemergence, 62 g ai/ha, scale 0 to 100 (0 no effect, 100 complete control)): 5%
- pest or weed control at 125 g/ha (large (Lg) crabgrass; 125 g ai/ha, 0 to 100 scale where 0 is no effect and 100 is complete control, read-out: Plant response rating, Crabgrass, Large): 100%
- pest or weed control at 500 g/ha (large (Lg) crabgrass; 500 g ai/ha, 0 to 100 scale, 0 no effect, 100 complete control, approx. 10 days, read-out: Crabgrass, Large plant response rating): 100%
- pest or weed control at 16 g/ha (giant foxtail [6]; 16 g ai/ha, postemergence, visual rating, scale 0 to 100 (0 no effect, 100 complete control), 13 to 15 days, read-out: Foxtail, Giant plant response rating): 0%
- pest or weed control at 125 g/ha (giant foxtail [6]; 125 g ai/ha, postemergence, read-out: Plant response rating (0 to 100), Foxtail, Giant): 5%
- pest or weed control at 31 g/ha (giant foxtail [6]; Postemergence, 31 g ai/ha, scale 0 to 100 (0 no effect, 100 complete control), 13 to 15 days, read-out: Plant response rating, Foxtail, Giant): 5%
- pest or weed control at 62 g/ha (giant foxtail [6]; Postemergence, 62 g ai/ha, scale 0 to 100 (0 no effect, 100 complete control), read-out: Plant response rating, Foxtail, Giant): 5%
- pest or weed control at 250 g/ha (Heteranthera limosa): 100%
- Corn plant response rating (crop injury, 0 = no effect, 100 = complete kill) at 125 g/ha (corn [7]; [10]): 70%
- plant injury at 500 g/ha (corn [7]; 500 g ai/ha, 0 to 100 scale, 0 no effect, 100 complete control, read-out: Plant response rating Corn): 10%
- pest or weed control at 125 g/ha (morningglory [8]; 125 g ai/ha, postemergence, read-out: Plant response rating (0 to 100), Morningglory): 60%
- pest or weed control at 31 g/ha (morningglory [8]; Postemergence, 31 g ai/ha, scale 0 to 100 (0 no effect, 100 complete control), 13 to 15 days, read-out: Plant response rating, Morningglory): 10%
- pest or weed control at 62 g/ha (morningglory [8]; Postemergence, 62 g ai/ha, scale 0 to 100 (0 no effect, 100 complete control), read-out: Plant response rating, Morningglory): 60%
- pest or weed control at 125 g/ha (velvetleaf [9]; 125 g ai/ha, postemergence, read-out: Plant response rating (0 to 100), Velvetleaf): 75%
- pest or weed control at 31 g/ha (velvetleaf [9]; Postemergence, 31 g ai/ha, scale 0 to 100 (0 no effect, 100 complete control), 13 to 15 days, read-out: Plant response rating, Velvetleaf): 45%
- pest or weed control at 62 g/ha (velvetleaf [9]; Postemergence, 62 g ai/ha, scale 0 to 100 (0 no effect, 100 complete control), read-out: Plant response rating, Velvetleaf): 65%
